Data reported in article PMC12785453, “Oral Fluid Concentrations and Pharmacological Effects of Clephedrone and Methylone in Humans” (International Journal of Molecular Sciences, 2025).

Tested on: healthy male participants
Test: Subjective effects, visual analog scales (VAS), methylone trial
Type: in vivo, humans
Experimental: Methylone pharmacology was evaluated in a study designed as a randomized, double-blind, placebo-controlled, crossover clinical trial. Four pilot studies were conducted administering methylone at oral doses of 50 (n = 3), 100 (n = 6), 150 (n = 5), and 200 mg (n = 7). Participants attended 3 experimental sessions separated by a one-week wash-out period and received two doses of methylone (one dose per experimental session) compared to placebo, except in the last pilot study in which participants received one dose of methylone, compared to MDMA and placebo. However, in this manuscript, only the results corresponding to the highest methylone doses (n = 12; 150 and 200 mg; mean dose = 179.2 mg) are presented, to enable comparison with clephedrone self-administration. Participants were recruited by word of mouth in the volunteer database of the clinical pharmacology unit.
Methylone hydrochloride of high purity in powder form was acquired from LGC Standards (Teddington, UK) for the controlled study. The Pharmacy Department of the Hospital Universitari Germans Trias i Pujol was responsible for manufacturing, storing, and dispensing identical and opaque soft gelatin capsules containing 50 mg of methylone or a placebo (maltodextrin). Treatment consisted of 5 capsules that combined methylone and/or a placebo to reach the target dose. Details can be found in the previous article.
Subjective effects were evaluated with visual analog scales (VAS), the short form of the Addiction Research Center Inventory (ARCI), and the Evaluation of Subjective Effects of Substances with Abuse Potential questionnaire (VESSPA-SSE). In addition, the Sensitivity to Drug Reinforcement Questionnaire (SDRQ) and a pharmacological identification class questionnaire were used in the controlled study administering methylone.
VAS encompassed several adjectives that participants had to rate from “not at all” (0 mm) to “extremely” (100 mm) according to their sensations. This scale included 28 items: intensity, stimulated, high, good effects, bad effects, liking, changes in distances, changes in colors, changes in shapes, changes in lights, hallucinations (seeing lights or spots), hallucinations (seeing things, animals, insects, or people), changes in hearing, hallucinations (hearing sounds or voices), drowsiness, concentration, dizziness, confusion, different or changed body feeling, unreal body feeling, different surroundings, unreal surroundings, open, trust, feeling close to others, I want to be with other people, I want to hug someone, sexual desire, and sexual arousal.
Participants included in the naturalistic clephedrone study completed VAS at baseline, 0.50, 1, 1.5, 2, 3, 4, and 5 h, and ARCI and VESSPA at baseline, 1, 2, 3, 4, and 5 h after self-administering clephedrone. In the controlled study, VAS was performed at baseline and 0.25, 0.50, 0.75, 1, 1.5, 2, 3, 4, 6, 8, 10, and 24 h, and ARCI and VESSPA at baseline and 1, 2, 3, 4, 6, 8, and 10 h after administering methylone. Participants completed SDRQ and VAS sexual desire and arousal at baseline, 1 and 10 h, and the pharmacological class identification questionnaire at 8 h.
For statistical analysis, values of physiological (SBP, DBP, HR, and T) and subjective effects (VAS, ARCI, and VESSPA-SSE) were baseline–adjusted. Maximum effects (Emax) and the time needed to reach maximum effects (Tmax) were determined, and the area under the curve up to 5 h (AUC0–5h) for clephedrone and up to 6 h (AUC0–6h) for methylone was calculated using the trapezoidal rule. Emax and AUC values are presented as mean ± standard deviation, whereas Tmax is presented in median (range).
To find possible significant changes through the time course compared to baseline, a Dunnett multiple comparison test was carried out to compare each time point with baseline in both drug conditions. […]

[1] = 150 or 200 mg oral, n=12, listed as methylone
[2] = AUC0–6h, 150 or 200 mg oral, n=12

## CNC(C)C(=O)c1ccc2c(c1)OCO2 (stereo not shown) [Methylone, 3,4-methylenedioxy-N-methylcathinone]
150 or 200 mg oral, n=12
  VAS Bad effects Emax: 0.17 ± 0.58 mm
  VAS Changes in colors Emax: 0.00 ± 0.00 mm
  VAS Changes in colors Tmax: 0.0 (0.0–0.0) h
  VAS Changes in distances Emax: 1.58 ± 5.48 mm
  VAS Changes in distances Tmax: 0.0 (0.0–1.0) h
  VAS Changes in hearing Emax: 0.42 ± 1.44 mm
  VAS Changes in hearing Tmax: 0.0 (0.0–0.5) h
  VAS Changes in lights Emax: 0.00 ± 0.00 mm
  VAS Changes in lights Tmax: 0.0 (0.0–0.0) h
  VAS Concentration Emax: 2.50 ± 4.21 mm
  VAS Confusion Emax: 1.33 ± 2.57 mm
  VAS Different or changed body feeling Emax: 12.25 ± 10.68 mm
  VAS Different surroundings Emax: 0.33 ± 1.15 mm
  VAS Dizziness Emax: 3.08 ± 5.33 mm
  VAS Drowsiness Emax: 10.17 ± 16.16 mm
  VAS Feeling close to others Emax: 15.92 ± 19.97 mm
  VAS Good effects Emax: 29.75 ± 21.60 mm
  VAS High Emax: 26.67 ± 18.12 mm
  VAS I want to be with other people Emax: 17.42 ± 20.62 mm
  VAS I want to hug someone Emax: 15.33 ± 21.76 mm
  VAS Intensity Emax: 25.17 ± 18.95 mm
  VAS Liking Emax: 30.33 ± 23.26 mm
  VAS Open Emax: 15.67 ± 19.21 mm
  VAS Sexual arousal Emax: 0.50 ± 1.45 mm
  VAS Sexual desire Emax: 1.08 ± 2.07 mm
  VAS Trust Emax: 15.92 ± 20.07 mm
  VAS Unreal body feeling Emax: 0.00 ± 0.00 mm
  VAS Unreal surroundings Emax: 0.00 ± 0.00 mm
[1]
  VAS Feeling close to others Emax: > 15 mm
  VAS Good effects Emax: exceeding 20 mm
  VAS High Emax: exceeding 20 mm
  VAS I want to be with other people Emax: > 15 mm
  VAS I want to hug someone Emax: > 15 mm
  VAS Intensity Emax: exceeding 20 mm
  VAS Liking Emax: exceeding 20 mm
  VAS Open Emax: > 15 mm
  VAS Stimulated Emax: exceeding 20 mm
  VAS Trust Emax: > 15 mm
[2]
  VAS Bad effects AUC0-5/6 h: 0.06 ± 0.22 mm·h
  VAS Changes in colors AUC0-5/6 h: 0.00 ± 0.00 mm·h
  VAS Changes in distances AUC0-5/6 h: 0.72 ± 2.49 mm·h
  VAS Changes in hearing AUC0-5/6 h: 0.10 ± 0.36 mm·h
  VAS Changes in lights AUC0-5/6 h: 0.00 ± 0.00 mm·h
  VAS Concentration AUC0-5/6 h: 1.95 ± 3.58 mm·h
  VAS Confusion AUC0-5/6 h: 1.46 ± 3.43 mm·h
  VAS Different or changed body feeling AUC0-5/6 h: 7.96 ± 8.16 mm·h
  VAS Different surroundings AUC0-5/6 h: 0.17 ± 0.58 mm·h
  VAS Dizziness AUC0-5/6 h: 3.31 ± 6.88 mm·h
  VAS Drowsiness AUC0-5/6 h: 19.98 ± 33.41 mm·h
  VAS Feeling close to others AUC0-5/6 h: 14.20 ± 16.71 mm·h
  VAS Good effects AUC0-5/6 h: 26.38 ± 22.79 mm·h
  VAS High AUC0-5/6 h: 22.85 ± 18.54 mm·h
  VAS I want to be with other people AUC0-5/6 h: 16.94 ± 19.79 mm·h
  VAS I want to hug someone AUC0-5/6 h: 14.27 ± 19.51 mm·h
  VAS Intensity AUC0-5/6 h: 20.30 ± 18.35 mm·h
  VAS Liking AUC0-5/6 h: 28.45 ± 24.43 mm·h
  VAS Open AUC0-5/6 h: 15.04 ± 17.47 mm·h
  VAS Sexual arousal AUC0-5/6 h: 2.50 ± 7.23 mm·h
  VAS Sexual desire AUC0-5/6 h: 5.42 ± 10.33 mm·h
  VAS Stimulated AUC0-5/6 h: 20.30 ± 18.35 mm·h
  VAS Trust AUC0-5/6 h: 15.08 ± 18.74 mm·h
  VAS Unreal body feeling AUC0-5/6 h: 0.00 ± 0.00 mm·h
  VAS Unreal surroundings AUC0-5/6 h: 0.00 ± 0.00 mm·h
oral
  Time of peak pharmacological effects: 0.75–1 h
